Structures can show the parent of a compound that is named as a salt.
Target: T1, full length SGK1 (Homo sapiens, UniProt O00141)
T1 construct: 125 μM full length SGK1 (Life Technologies Part #PR7358A); purchased Life Technologies PR7358A
T1 sequence (O00141 1-431): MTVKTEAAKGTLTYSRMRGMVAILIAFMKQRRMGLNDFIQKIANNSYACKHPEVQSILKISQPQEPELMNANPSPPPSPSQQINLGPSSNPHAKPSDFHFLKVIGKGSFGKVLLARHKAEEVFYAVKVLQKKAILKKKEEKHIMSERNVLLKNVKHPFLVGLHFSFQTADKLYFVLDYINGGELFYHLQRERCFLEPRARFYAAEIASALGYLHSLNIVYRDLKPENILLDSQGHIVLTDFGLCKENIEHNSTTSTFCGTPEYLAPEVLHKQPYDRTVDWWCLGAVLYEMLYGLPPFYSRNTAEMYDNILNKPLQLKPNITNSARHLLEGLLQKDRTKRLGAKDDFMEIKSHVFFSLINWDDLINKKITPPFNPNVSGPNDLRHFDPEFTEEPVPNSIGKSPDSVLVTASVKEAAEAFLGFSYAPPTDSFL
Assay: SGK1 inhibition Assay A (Caliper LabChip electrophoretic separation of fluorescent peptide substrate and phosphorylated product)
Assay type: biochemical
Conditions: Assay A; 20 μM ATP, 40 min incubation; read-out: SGK1 IC50

SMILES	IC50 [nM]
COC(=O)N1CC=C(c2cc(N3CCC[C@@H](NC(=O)c4sc5ccc(F)cc5c4OC4CCNCC4)C3)c3c(N)ncnn23)C1 [Example 686, methyl (R)-3-(4-amino-5-(3-(5-fluoro-3-(piperidin-4-yloxy)benzo[b]thiophene-2-carboxamido)piperidin-1-yl)pyrrolo[2,1-f][1,2,4]triazin-7-yl)-2,5-dihydro-1H-pyrrole-1-carboxylate]	7
Nc1ncnn2c(-c3cncnc3)cc(N3CCC[C@@H](NC(=O)c4sc5ccc(F)cc5c4OC4CCNCC4)C3)c12 [Example 688, (R)—N-(1-(4-amino-7-(pyrimidin-5-yl)pyrrolo[2,1-f][1,2,4]triazin-5-yl)piperidin-3-yl)-5-fluoro-3-(piperidin-4-yloxy)benzo[b]thiophene-2-carboxamide]	161
COC(=O)N1CC=C(c2cc(N3CCC[C@@H](NC(=O)c4n[nH]c5ccc(N)cc45)C3)c3c(N)ncnn23)C1 [Example 689, methyl (R)-3-(4-amino-5-(3-(5-amino-1H-indazole-3-carboxamido)piperidin-1-yl)pyrrolo[2,1-f][1,2,4]triazin-7-yl)-2,5-dihydro-1H-pyrrole-1-carboxylate]	53
Nc1ccc2[nH]nc(C(=O)N[C@@H]3CCCN(c4cc(-c5cncnc5)n5ncnc(N)c45)C3)c2c1 [Example 690, (R)-5-amino-N-(1-(4-amino-7-(pyrimidin-5-yl)pyrrolo[2,1-f][1,2,4]triazin-5-yl)piperidin-3-yl)-1H-indazole-3-carboxamide]	507
Cc1cc(-c2cc(N3CCC[C@@H](NC(=O)c4sc(Cl)cc4OCCN(C)C)C3)c3c(N)ncnn23)cn(C)c1=O [Example 691, (R)—N-(1-(4-amino-7-(1,5-dimethyl-6-oxo-1,6-dihydropyridin-3-yl)pyrrolo[2,1-f][1,2,4]triazin-5-yl)piperidin-3-yl)-5-chloro-3-(2-(dimethylamino)ethoxy)thiophene-2-carboxamide]	115
CCn1cc(-c2cc(N3CCC[C@@H](NC(=O)c4sc(Cl)cc4OCCN(C)C)C3)c3c(N)ncnn23)cc(C)c1=O [Example 692, (R)—N-(1-(4-amino-7-(1-ethyl-5-methyl-6-oxo-1,6-dihydropyridin-3-yl)pyrrolo[2,1-f][1,2,4]triazin-5-yl)piperidin-3-yl)-5-chloro-3-(2-(dimethylamino)ethoxy)thiophene-2-carboxamide]	98
Cc1cc(-c2cc(N3CCC[C@@H](NC(=O)c4sc(Cl)cc4OCCN(C)C)C3)c3c(N)ncnn23)cn(C(C)C)c1=O [Example 693, (R)—N-(1-(4-amino-7-(1-isopropyl-5-methyl-6-oxo-1,6-dihydropyridin-3-yl)pyrrolo[2,1-f][1,2,4]triazin-5-yl)piperidin-3-yl)-5-chloro-3-(2-(dimethylamino)ethoxy)thiophene-2-carboxamide]	69
Cc1cc(-c2cc(N3CCC[C@@H](NC(=O)c4sc(Cl)cc4OCCN(C)C)C3)c3c(N)ncnn23)cn(CC(C)C)c1=O [Example 694, (R)—N-(1-(4-amino-7-(1-isobutyl-5-methyl-6-oxo-1,6-dihydropyridin-3-yl)pyrrolo[2,1-f][1,2,4]triazin-5-yl)piperidin-3-yl)-5-chloro-3-(2-(dimethylamino)ethoxy)thiophene-2-carboxamide]	103
Nc1ncnn2c(C#Cc3ccncc3)cc(N3CCC[C@@H](NC(=O)c4ccc(Cl)s4)C3)c12 [Example 695, (R)—N-(1-(4-amino-7-(pyridin-4-ylethynyl)pyrrolo[2,1-f][1,2,4]triazin-5-yl)piperidin-3-yl)-5-chlorothiophene-2-carboxamide, TFA salt]	242
N#Cc1ccc(C(=O)N[C@@H]2CCCN(c3cc(C#N)n4ncnc(N)c34)C2)s1 [Example 696, (R)—N-(1-(4-amino-7-cyanopyrrolo[2,1-f][1,2,4]triazin-5-yl)piperidin-3-yl)-5-cyanothiophene-2-carboxamide]	80
